Data taken from patent US7217559B2, “Gene encoding cyclododecanone monooxygenase” (National Research Council of Canada, priority 2002, dated 2007).

What was measured:
[1] = test system: cyclododecanone monooxygenase (CDMO); experiment: Substrate specificity of cloned CDMO (relative activity towards cyclic ketones); assay type: biochemical, Pseudomonas putida strain HI-70; settings: ketone as substrate, cyclododecanone = 100%
[2] = test system: cyclododecanone monooxygenase (CDMO); experiment: Comparison of CDMO activity in E. coli and native HI-70; assay type: biochemical, Pseudomonas putida strain HI-70

| Molecule | relative activity [1] [%] | CDMO activity ([2]; from E. coli DH5α(pSD-cdnB)) | CDMO activity ([2]; original P. putida strain HI-70) |
| --- | --- | --- | --- |
| O=C1CCCCCCCCC1 [cyclodecanone] | 10 | – | – |
| O=C1CCCCCCCCCCC1 [cyclododecanone] | 100 | – | – |
| O=C1CCCCCCCCCCCCCC1 [cyclopentadecanone] | 144 | – | – |
| O=C1CCCCCCCCCCCC1 [cyclotridecanone] | 138 | – | – |
| O=C1CCCCCCCCCC1 [cycloundecanone] | 56 | – | – |
| CDMO: cyclododecanone monooxygenase of Pseudomonas putida HI-70, encoded by cdnB, amino acid sequence SEQ ID NO:8 (protein, Primer) MSQLIQEPAEAGVTSQKVSFDHVALREKYRQERDKRLRQDGQEQYLEVAVTCDEYLKDPYADPIVRDPVVRETDVFIIGGGFGGLLAAVRLQQAGVSDYVMVERAGDYGGTWYWNRYPGAQCDIESYVYMPLLEEMGYIPTEKYAFGTEILEYSRSIGRKFGLYERTYFQTEVKDLSWDDEAARWRITTDRGDKFSARFVCMSTGPLQRPKLPGIPGITSFKGHSFHTSRWDYSYTGGDQTGNLEGLKDKRVAIIGTGATSIQAVPHLAAYAQELYVIQRTPISVGFRGNKPTDPEWAKSLQPGWQQARMDNFNAITHGMPVDVDLVQDSWTKIFGEIGVFLGSDGSRAQMVDFQLMEQIRARVDQEVKDPATAESLKPYYNIMCKRPGFHDSYLPSFNKPNVTLVDTQGAGVERITEKGLVVNGREYEVDCLIYATGFEYQTKLSRRNGYEIHGRNGQPLSDKWKDGLSTLWGYHIRDFPNCFILGNGQSAVTPNFTHMLNEAGKHVAYVVKHCLDERVDVFEPTAEAEQAWVDHVMSFAGIKQQYDRECTPSYYNNEGQVNDVALTRTTSTRAVRSLINILREWREKGDFAQFQQRKR | – | 0.48 U/mg of protein | 0.14 U/mg of protein |
